# Experimental data: patent US6399623B1, “Wood treatment” (Agrevo UK Ltd., priority 1998, dated 2002)
# What was measured:
# Gloephyllum trabeum = assay: In vitro malt agar test, colony diameter; assay type: cell-based; details: assessed after 11 days
# Description: A 50% SC of fluquinconazole (fq) was incorporated into malt agar at various rates and the agar placed into Petri dishes. Into the centre of each plate was implanted a 4 mm plug of the mycelium of a wood rotting fungus. […] The experiment was also carried out with a fluquinconazole formulation containing di(2-ethylhexyl)octyl phosphonate (ph) with and without prochloraz (pz).
# [1] = tested on: wood rotting fungi (mainly basidiomycetes); assay: In vivo test of activity against wood destroying fungi (dipped pine pieces); details: 100 ppm fluquinconazole, formulation containing di(2-ethylhexyl)octyl phosphonate, 5 weeks in sealed bag, compared with standards without pesticide
# Description: Pieces of pine were dipped into a fluquinconazole formulation containing di(2-ethylhexyl)octyl phosphonate at different rates and then removed and put, whilst soaking wet, into a polythene bag which was sealed and left in a greenhouse for 5 weeks. The degree of control of wood rotting fungi (mainly basidiomycetes) was then assessed.
# Poria placenta = assay: In vitro malt agar test, colony diameter; assay type: cell-based; details: assessed after 6 days
# Description: (§1) A 50% SC of fluquinconazole (fq) was incorporated into malt agar at various rates and the agar placed into Petri dishes. Into the centre of each plate was implanted a 4 mm plug of the mycelium of a wood rotting fungus. The plates were kept at 20° C. in a darkened room for 6 days when the control of the fungus by the fluquinconazole was assessed. The experiment was also carried out with a fluquinconazole formulation containing di(2-ethylhexyl)octyl phosphonate (ph) with and without prochloraz (pz).
# Coriolus versicolor = assay: In vitro malt agar test, colony diameter; assay type: cell-based; details: assessed after 6 days
# Description: as §1
# Coniophora puteana = assay: In vitro malt agar test, colony diameter; assay type: cell-based; details: assessed after 6 days
# Description: as §1
# sapstain fungi = assay: In vivo test of activity against sapstain fungi (dipped pine bundles); details: 50% suspension concentrate diluted to 0.25%, 60 s dip, after 4 weeks; compared with wood dipped only in water
# Source text: Bundles consisting of 7 pieces of freshly cut pine (approximate sizes of 20 cm×30 cm) were dipped in a 50% suspension concentrate of fluquinconazole, diluted to 0.25%, for 60 seconds, ensuring each piece of wood was separated from its contacting pieces. The wood was removed from the liquid and allowed to drain for 10 seconds and then placed in an unsealed polythene bag at room temperature. The bag was used in order to maintain a high relative humidity, which promotes growth of sapstain. The wood was removed for examination after 4 weeks and divided into two in order to expose the centre of the bundles. These were assessed for sapstain infection.
compound,measurement,setting,value
"O=c1c2cc(F)ccc2nc(-n2cncn2)n1-c1ccc(Cl)cc1Cl [fluquinconazole, 3-(2,4-dichlorophenyl)-6-fluoro-2-(1H-1,2,4-triazol-1-yl)-4(3H)-quinazolinone]",% Control based on colony diameter,Gloephyllum trabeum; 1 ppm,80.5%
same,% Control based on colony diameter,Gloephyllum trabeum; 5 ppm,94.0%
same,% Control based on colony diameter,Gloephyllum trabeum; 10 ppm,95.0%
same,% Control based on colony diameter,Gloephyllum trabeum; 25 ppm,92.5%
same,% Control based on colony diameter,Gloephyllum trabeum; 100 ppm,94.0%
same,control of wood rotting fungi,[1],73.1%
same,% Control based on colony diameter,Poria placenta; 1 ppm,99.4%
same,% Control based on colony diameter,Poria placenta; 5 ppm,100.0%
same,% Control based on colony diameter,Poria placenta; 10 ppm,100.0%
same,% Control based on colony diameter,Poria placenta; 25 ppm,100.0%
same,% Control based on colony diameter,Poria placenta; 100 ppm,100.0%
same,% Control based on colony diameter,Coriolus versicolor; 1 ppm,100.0%
same,% Control based on colony diameter,Coriolus versicolor; 5 ppm,100.0%
same,% Control based on colony diameter,Coriolus versicolor; 10 ppm,100.0%
same,% Control based on colony diameter,Coriolus versicolor; 25 ppm,100.0%
same,% Control based on colony diameter,Coriolus versicolor; 100 ppm,100.0%
same,% Control based on colony diameter,Coniophora puteana; 1 ppm,50.4%
same,% Control based on colony diameter,Coniophora puteana; 5 ppm,75.6%
same,% Control based on colony diameter,Coniophora puteana; 10 ppm,84.7%
same,% Control based on colony diameter,Coniophora puteana; 25 ppm,68.7%
same,% Control based on colony diameter,Coniophora puteana; 100 ppm,77.9%
same,control of the sapstain,sapstain fungi,> 60%
